Assay [1] has as its system RAD51 ΔN loop mutant. The assay can be described thus: Amylose pull-down of RAD51 loop mutant with MBP-BRCA2 fusions. The settings on record: RAD51 with DMC1's PhePP-binding loops; MBP-BRCA2 fusion. The source says: (§1) For affinity pulldown experiments, MBP-fusions of BRCA2 fragments (Ex14, amino-acids 2387-2420, Ex14-Tr, amino acids 2401-2414, Ex27, amino acids 3270-3315, BRC4, amino acids 1519-1551) were cloned into pMAT11 vectors[54] and co-expressed with DMC1 ΔN, DMC1 ΔN loop mutant (in which DMC1 amino acids 147-GAGGYPG-153 and 178-NVDHDA-183 were replaced by the cognate sequences of RAD51 148-IDRGGGE-154 and 179-GLSGSD-184), RAD51 ΔN, RAD51 ΔN loop mutant (the reverse switch of DMC1 ΔN loop mutant), and RAD51. MBP-fusions and complexes were purified through amylose affinity chromatography.

Assay [2] addresses T1, DMC1 ΔN loop mutant (Homo sapiens, UniProt Q14565, A148D/A183D/D180S/D182S/G147I/G149R/G153E/H181G/N178G/P152G/V179L/Y151G).
T1 construct: DMC1 ΔN (83-340) were cloned into pHAT4; made in house
T1 sequence (Q14565 83-340 G147I/A148D/G149R/Y151G/P152G/G153E/N178G/V179L/D180S/H181G/D182S/A183D limits assumed): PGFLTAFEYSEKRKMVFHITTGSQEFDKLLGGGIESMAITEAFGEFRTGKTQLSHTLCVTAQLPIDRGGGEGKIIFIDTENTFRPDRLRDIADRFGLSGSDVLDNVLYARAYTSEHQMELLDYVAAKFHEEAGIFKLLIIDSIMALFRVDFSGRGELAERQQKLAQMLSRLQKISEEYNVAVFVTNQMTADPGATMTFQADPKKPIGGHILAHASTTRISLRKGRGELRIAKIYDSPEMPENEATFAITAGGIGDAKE
The assay can be described thus: Amylose pull-down of DMC1 ΔN loop mutant with MBP-BRCA2 fusions. The class given is binding. The settings on record: recombinant co-expression with MBP-BRCA2 fusion.
Text: as §1

The test system of assay [3] is RAD51 ΔN. Kind of assay: Amylose pull-down of RAD51 ΔN with MBP-BRCA2 fusions. The class given is binding. The note with it: recombinant co-expression with MBP-BRCA2 fusion.
Text: as §1

The target in assay [4] is T2, DMC1 ΔN (Homo sapiens, UniProt Q14565).
T2 construct: DMC1 ΔN (83-340) were cloned into pHAT4; His6 (TEV-cleavable) (N, cleaved yes); made in house; host or cells: E. coli BL21 (DE3)
T2 sequence (Q14565 83-340): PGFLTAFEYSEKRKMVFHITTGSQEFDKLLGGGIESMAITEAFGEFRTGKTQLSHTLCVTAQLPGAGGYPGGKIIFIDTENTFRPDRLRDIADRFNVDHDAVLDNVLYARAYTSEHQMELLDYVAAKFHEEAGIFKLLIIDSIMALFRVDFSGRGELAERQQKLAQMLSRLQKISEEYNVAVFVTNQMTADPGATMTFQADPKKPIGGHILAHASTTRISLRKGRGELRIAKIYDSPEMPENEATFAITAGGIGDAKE
Kind of assay: Amylose pull-down of DMC1 ΔN with MBP-BRCA2 fusions. In kind it is binding. The note with it: recombinant co-expression with MBP-BRCA2 fusion.
Text: as §1

Assay [5] concerns DMC1 V179E-ssDNA filaments. Kind of assay: EMSA, super-shift of filaments formed using DMC1 V179E. In kind it is biochemical, human. The method, then: (§2) To form nucleoprotein filaments, DMC1 and RAD51 was incubated with fluorescent 100-base ssDNA (5’-FAM- […]-3’) at the concentrations indicated in the figures for 30 minutes at 4 °C in reaction buffer. For DMC1, reaction buffer is 25 mM TEA (triethanolamine) pH 7.5, 1 mM ATP, 2 mM MgCl2, 0.1 mg/ml BSA, 2 mM DTT, 200 mM KCl. For RAD51, reaction buffer is 50 mM TEA (triethanolamine), 2 mM ATP, 0.5 mM MgCl2, 2 mM DTT. For assays requiring incomplete nucleoprotein filament assembly, the reaction buffer consisted of 50 mM TAE (tris, acetate, EDTA) pH 7.5, 2 mM ATP, 2 mM MgCl2, 2 mM DTT. In nucleoprotein formation stimulation assays or supershift experiments, BRCA2Ex14 or BRCA2Ex14-AAA were added for a further 30 min at 4 °C. […] Glycerol was added at a final concentration of 3%, and samples were analysed by electrophoresis on a 1% (w/v) (for DMC1) or 0.66% (w/v) (for RAD51) agarose gel in 0.5x TAE pH 8.0 at 20–40 V for ~4 h at 4 °C. DNA was detected by FAM using a Typhoon^TM FLA 9500 (GE Healthcare), with 473 nm laser at excitation wavelength 490 nm and emission wavelength 520 nm, using the LPB filter and a PMT voltage of 500 V. To analyse RAD51 nucleoprotein filaments assembled upon 100-base poly(dT) ssDNA, gels were stained post-run using SYBR^TM Gold Nucleic Acid Gel Stain (Invitrogen) and detected using a Typhoon^TM FLA 9500 (GE Healthcare).
Background: A gel shift assay detects complexes by their altered migration in electrophoresis.

Assay [6] has as its target T2, DMC1 ΔN. The assay can be described thus: Microscale thermophoresis (MST), BRCA2 peptides and DMC1 ΔN. The class given is binding. The settings on record: for Kd: MST from initial fluorescence, labelled DMC1 ΔN 150 nM, 10 mM HEPES pH 8.0, 150 mM NaCl, 0.05 % Tween-20, ~22 °C, mean, n = 3 independent experiments. The method, then:
DMC1 ΔN and DMC1 ΔN loop mutant were labelled in 10 mM HEPES pH 8.0, 150 mM NaCl with an amine reactive fluorescent dye (MonolithTM Protein Labelling Kit BLUE-NHS, Nanotemper GmbH). A serial dilution of titrant (peptide) was prepared in 10 mM HEPES pH 8.0, 150 mM NaCl, 0.05 % Tween-20. The concentration of labelled DMC1 ΔN or DMC1 ΔN loop mutant were constant at 150 nM and the concentration of the interacting peptide was titrated in 1:1 dilutions starting from 750 µM. An equal volume (10 µl) of the serial dilution and of the diluted labelled DMC1 were mixed and loaded in glass capillaries (MonolithTM NT.115 MST Premium Coated Capillaries, Nanotemper GmbH). The initial fluorescence and the thermophoretic mobility were measured on a Monolith NT.115 system (NanoTemper Technologies). The excitation power was 45 % and MST power was 60 % at room temperature (~22 °C). Laser on and off times were set at 5 and 30 seconds, respectively. Data analysis was performed with NT Affinity Analysis software.
As a change in initial fluorescence was detected, SDS denaturation (SD) tests were performed according to the manufacturer’s instructions to determine whether these changes were ligand-induced and whether the data could therefore be used to derive affinity measurements. Briefly, 7 µl of the samples containing the three highest and three lowest concentrations of peptide were mixed with 7 µl of denaturation buffer (4 % SDS, 40 mM DTT). After incubating each for 5 minutes at 95 °C to denature the proteins and subject to brief centrifugation, the samples were loaded onto Premium Coated Capillaries and their initial fluorescence measurements recorded. […] Initial fluorescence readings were used to derive binding affinities.
On the technique in general: MST reads how a fluorescent partner responds to local heating, with and without ligand.

Assay [7] concerns RAD51 L180E-ssDNA (polydT) filaments. The assay can be described thus: EMSA, protection of RAD51 L180E-ssDNA (polydT) filaments from BRC4-mediated disruption. The note with it: 100-nt polydT. The class given is biochemical. The method, then:
as §2

Entries after “also recorded” stand apart in the source; their conditions may differ. No end group written: not given here.

For orientation: Kd means a measure of binding affinity in units of concentration.

With “ATRNEKMRHLITTGRPTKVFVPPFKTKSHFHRVE [Ex14]”, the binding in pull-down result in assay [1] is reported as “failed to”; in assay [2], “abolished its ability to bind Ex14; also recorded: blocked Ex14-”; in assay [3] it was “binds selectively to BRCA2 Ex27 rather than Ex14”; in assay [4] it was “bind”. Also, the “super-shift of DMC1 V179E-ssDNA filaments” value in assay [5] was “The residual super-shift was the same; also recorded: only minimal super-shift”. In assay [6], binding was characterised by a dissociation constant (Kd) of 30.4 µM. In assay [6] (MST, DMC1 ΔN), the “affinity of Ex14 relative to Ex27” value was “over threefold higher affinity than Ex27”.
For the substance “Ex27: BRCA2 exon 27 PhePP peptide, amino acids 3270-3315 (ALDFLSRLPLPPPVSPICTFVSPAAQKAFQPPRSCGTKYETPIKKK; UniProt P51587 3270-3315, looked up, fragment)”, the binding in pull-down result is “failed to” in assay [1], “failed to bind; also recorded: failed to interact with Ex27” in assay [2], “binds selectively” in assay [3] and “not” in assay [4]. Also, in assay [7], the “protection of RAD51 L180E-ssDNA (polydT) filaments from BRC4-mediated disruption” value is given as “not protected; also recorded: almost entirely lost; also recorded: abrogated”. In assay [6], this substance had a Kd of over 96.2 µM.

These data come from paper PMC11436757, “BRCA2 stabilises RAD51 and DMC1 nucleoprotein filaments through a conserved interaction mode” (Nature Communications, 2024).
